# Measurements: patent US20060252026A1, “Cryopreservation method for bivalve oocytes” (priority 2005, published 2006)
# How the values were obtained:
# [1] = test system: Pacific oyster (Crassostrea gigas) oocytes; assay: Post-thaw fertilisation assay of cryopreserved oocytes; assay type: cell-based; settings: for post-thaw fertilisation rate: Example 2.9, ten percent EG
# Experimental: Cryopreservation straws (0.25 cc, IMV, France) were then loaded with the solution containing oocytes and CPA, sealed with PVC powder and laid flat on a rack. The total time at room temperature was 20 min. Loaded straws were placed into Cryogenesis freezers (Cryologic Pty Ltd, Mt Waverly, Australia) and held at 0° C. for 5 min. […] Following the hold period, the freezers were then programmed to cool at various rates (standard: 1° C. min^-1) to -35° C. at which temperature the straws were plunged into liquid nitrogen and stored. After up to 24 h storage, the straws were thawed by placing into a water bath at 28° C. […] After dilution, the thawed oocytes along with unfrozen oocytes from the same batch (controls) were fertilised using the miniaturised fertilisation assay described previously ([…] Smith, R D Roberts, A R Janke, […] Pugh, S C Webb, N G King, Aquaculture (2004) 242, 271). […] Duplicate assays were conducted on each straw and assays included a negative control where no sperm were added to check for parthenogenetic activation. […] All CPA concentrations are the final post-dilution levels. Fertilisation results from each experiment were used to determine factors to be evaluated in subsequent experiments. […] Each pool comprised oocytes from 4 to 8 oysters. […] Three new pools were selected from 11 available pools for Examples 2.4 to 2.6.
# [2] = test system: Pacific oyster (Crassostrea gigas) oocytes; settings: Example 2.7
# Experimental: Approximately 2.2 million unfrozen or thawed oocytes from 8 individuals were added to 500 mL of SW and fertilised at a ratio of 100 sperm per oocyte. After a contact time of ˜12 min, the fertilised oocytes were transferred into tanks containing 150 L of SW and 1 mg L^−1 EDTA at 23° C. After 24 h, the tanks were drained through a 45-μm mesh and subsamples taken to determine the percentage of oocytes reaching D-larvae in each treatment.
# The number of D-larvae was standardized for each female so that the four rearing tanks (2×cryopreserved and 2×unfrozen) all contained the same number of larvae. The larvae were resuspended in 2.5 L tanks in a continuous exchange larval rearing system and fed a mixed diet of Chaetoceros calcitrans and Isochrisis galbana (A Janke, H Kaspar, N King, S Foster, Abstracts of the World Aquaculture Society Conference, 1st-4th Mar. 2004, Hawaii, World Aquaculture Society, Louisiana State University, Baton Rouge, La., (2004), 312). Tanks were cleaned and larvae screened every second day to remove dead, abnormal or slow-growing larvae. Competent larvae were induced to metamorphose by bath application of 10^−4 M epinephrine (S L Coon, D B Bonar, Journal of Experimental Marine Biology and Ecology, (1985), 94, 211) for 3 to 5 h. […] The number of D-larvae in each treatment that developed to eyed larvae stage and spat was determined. […]
# [3] = test system: Eastern Oyster (Crassostrea virginica) oocytes; settings: Me2SO or sucrose as CPA; cited from earlier work
# Pacific oyster oocytes [4] = settings: Me2SO as CPA; cited from earlier work
# Pacific oyster oocytes [5] = settings: Me2SO as CPA in the presence of trehalose; cited from earlier work
structure (smiles),measurement,setting,value
"OCCO [EG, ethylene glycol]",post-thaw fertilisation,"[1]; Example 2.10, 10% EG in MQ, thawed in water bath at 3° C.",79%
same,post-thaw fertilisation,"[1]; Example 2.10, 10% EG in MQ, thawed in water bath at 28° C.",71%
same,post-thaw fertilisation,"[1]; Example 2.10, 10% EG in MQ, thawed in water bath at 60° C.",61%
same,post-thaw fertilisation,"[1]; Example 2.10, 10% EG in MQ, thawed in water bath at 90° C.",52%
same,oocyte fertilisation post-thaw,"[1]; Example 2.1, 100% EG (so in the source) in MQ with 0.85% w/v PVP, standard freezing/thawing",Highest fertilisation rates
same,"oocyte fertilisation post-thaw, effect of holding temperature","[1]; Example 2.5, 10% EG in MQ, holding for 5 min at either −10 or −12° C.",best results
same,"oocyte fertilisation post-thaw, effect of freezing rate","[1]; Example 2.6, 10% EG in MQ, slowest post-hold cooling rate (0.3° C. min−1)",best results
same,oocyte fertilisation post-thaw,"[1]; Example 2.7, 10% EG in MQ, no PVP, −10° C. hold, 0.3° C. min−1 to −35° C., mean±se",52.1±1.2%
same,post-thaw fertilisation,"[1]; Example 2.8, 10% EG in MQ, plunging at −25° C.",5%
same,post-thaw fertilisation,"[1]; Example 2.8, 10% EG in MQ, plunging at −35° C.",72%
same,post-thaw fertilisation,"[1]; Example 2.8, 10% EG in MQ, plunging at −45° C.",76%
same,post-thaw fertilisation rate,[1]; held at −16° C. for 5 min,31%
same,post-thaw fertilisation rate,[1]; held at −20° C. for 5 min,3%
same,"percentage of fertilised oocytes developing to D-larvae, fresh versus cryopreserved",[2]; P=0.126,no significant difference
same,"proportion of larvae developing to eyed larvae or spat, fresh versus cryopreserved",[2]; P=0.516 and 0.418,no difference
"C[S+](C)[O-] [Me2SO, dimethyl sulfoxide]",oocyte fertilisation post-thaw,"[1]; Example 2.1, 15% Me2SO in MQ with 0.85% w/v PVP, standard freezing/thawing",Highest fertilisation rates
same,fertilisation of oocytes after cryopreservation,[3],none of the oocytes were able to be fertilised
same,oocytes staining as live after cryopreservation,[3],7%
same,outcome of cryopreservation attempt,Pacific oyster oocytes [4],entirely unsuccessful
same,fertilisation achieved with the thawed oocytes,Pacific oyster oocytes [5],less than 0.5%
same,thawed oocytes developing to D-larvae,Pacific oyster oocytes [5],less than 0.005%
CO [methanol],oocyte fertilisation post-thaw,"[1]; Example 2.1, methanol 2.5, 5, 10% v/v in MQ with 0.85% w/v PVP, standard freezing/thawing",No oocytes were fertilised
OC[C@H]1O[C@@](CO)(O[C@H]2O[C@H](CO)[C@@H](O)[C@H](O)[C@H]2O)[C@@H](O)[C@@H]1O [sucrose],fertilisation of oocytes after cryopreservation,[3],none of the oocytes were able to be fertilised
same,oocytes staining as live after cryopreservation,[3],7%
OC[C@H]1O[C@H](O[C@H]2O[C@H](CO)[C@@H](O)[C@H](O)[C@H]2O)[C@H](O)[C@@H](O)[C@@H]1O [trehalose],effect on oocyte fertilisation post-thaw,"[1]; Example 2.2, trehalose above 0.1 M added to 10% EG in MQ",significant reduction in fertilisation
